Experimental data published in ChEMBL document CHEMBL5236593, “Design, synthesis and biological evaluation studies of novel anti-fibrosis agents bearing sulfoxide moiety” (2022).
The source made the active and inactive calls. The calls are words filed in the database; no cut-off is given here.

Columns and labels:
[1] = test system: LX-2; experiment: Anti-fibrotic activity in human LX2 cells assessed as downregulation of ACTA2 mRNA expression at 0.1 to 1 uM pretreated with compound for 30 mins followed by TGF-beta stimulation and measured after 24 hrs by qRT-PCR analysis; type: functional, cell-based; details: dose 0.1-1 µM, time 24.5 hrs
[2] = test system: Mus musculus; experiment: (§1) Anti-fibrotic activity against BLM-induced pulmonary fibrosis C57BL/6 mouse model assessed as reduction in area of lung fibrosis at 200 mg/kg administered via gavage for 13 days with first injection started at 24 hrs post-first BLM challenge and measured after 24 hrs by Masson's trichrome staining based analysis; type: functional, organism-based; details: time 14.0 day
[3] = test system: HRMC; experiment: Anti-fibrotic activity in human HRMC cells assessed as downregulation of COL4A1 mRNA expression at 1 uM pretreated with compound for 30 mins followed by TGF-beta stimulation and measured after 24 hrs by qRT-PCR analysis; type: functional, cell-based; details: time 24.5 hrs
[4] = test system: LX-2; experiment: Anti-fibrotic activity in human LX2 cells assessed as downregulation of CTGF mRNA expression at 0.1 to 1 uM pretreated with compound for 30 mins followed by TGF-beta stimulation and measured after 24 hrs by qRT-PCR analysis; type: functional, cell-based; details: dose 0.1-1 µM, time 24.5 hrs
[5] = test system: HRMC; experiment: Anti-fibrotic activity in human HRMC cells assessed as downregulation of IL11 mRNA expression at 1 uM pretreated with compound for 30 mins followed by TGF-beta stimulation and measured after 24 hrs by qRT-PCR analysis; type: functional, cell-based; details: time 24.5 hrs
[6] = test system: Mus musculus; experiment: as §1, with “in” for “in area of”, “lung inflammation” for “lung fibrosis”, “by H and E” for “by Masson's trichrome”, “based microscopic” for “based”; type: functional, organism-based; details: time 14.0 day
[7] = test system: Mus musculus; experiment: as §1, with “H and E” for “Masson's trichrome”, “based microscopic” for “based”; type: functional, organism-based; details: time 14.0 day
[8] = test system: HRMC; experiment: Anti-fibrotic activity in human HRMC cells assessed as downregulation of COL16A1 mRNA expression at 1 uM pretreated with compound for 30 mins followed by TGF-beta stimulation and measured after 24 hrs by qRT-PCR analysis; type: functional, cell-based; details: time 24.5 hrs
[9] = test system: Mus musculus; experiment: (§2) Anti-fibrotic activity against CCl4-induced liver fibrosis C57BL/6 mouse model assessed as reduction in liver bridging fibrosis at 200 mg/kg, ig administered for 27 days with first injection started at 24 hrs post-first CCl4 challenge and measured at 48 hrs post-last administration by Masson's trichrome staining based analysis; type: functional, organism-based; details: time 29.0 day
[10] = Anti-fibrotic activity in human NHCF-V cells assessed as downregulation of PAI-1 mRNA expression at 0.1 to 1 uM pretreated with compound for 30 mins followed by TGF-beta stimulation and measured after 24 hrs by qRT-PCR analysis; type: functional; details: dose 0.1-1 µM, time 24.5 hrs
[11] = test system: Mus musculus; experiment: Anti-fibrotic activity against CCl4-induced liver fibrosis C57BL/6 mouse model assessed as reduction in serum hydroxyproline content at 200 mg/kg, ig administered for 27 days with first injection started at 24 hrs post-first CCl4 challenge and measured at 48 hrs post-last administration; type: functional, organism-based; details: time 29.0 day
[12] = Anti-fibrotic activity in human NHCF-V cells assessed as downregulation of CTGF mRNA expression at 0.1 to 1 uM pretreated with compound for 30 mins followed by TGF-beta stimulation and measured after 24 hrs by qRT-PCR analysis; type: functional; details: dose 0.1-1 µM, time 24.5 hrs
[13] = test system: HRMC; experiment: Anti-fibrotic activity in human HRMC cells assessed as downregulation of CTGF mRNA expression at 1 uM pretreated with compound for 30 mins followed by TGF-beta stimulation and measured after 24 hrs by qRT-PCR analysis; type: functional, cell-based; details: time 24.5 hrs
[14] = test system: Mus musculus; experiment: Anti-fibrotic activity against CCl4-induced liver fibrosis C57BL/6 mouse model assessed as reduction in serum TBIL level at 200 mg/kg, ig administered for 27 days with first injection started at 24 hrs post-first CCl4 challenge and measured at 48 hrs post-last administration; type: functional, organism-based; details: time 29.0 day
[15] = test system: Mus musculus; experiment: Anti-fibrotic activity against BLM-induced pulmonary fibrosis C57BL/6 mouse model assessed as reduction in lung fibrosis at 200 mg/kg administered via gavage for 13 days with first injection started at 24 hrs post-first BLM challenge and measured after 24 hrs by Ashcroft score based analysis; type: functional, organism-based; details: time 14.0 day
[16] = test system: Mus musculus; experiment: Anti-fibrotic activity against CCl4-induced liver fibrosis C57BL/6 mouse model assessed as reduction in serum ALT level at 200 mg/kg, ig administered for 27 days with first injection started at 24 hrs post-first CCl4 challenge and measured at 48 hrs post-last administration; type: functional, organism-based; details: time 29.0 day
[17] = test system: Mus musculus; experiment: Anti-fibrotic activity against BLM-induced pulmonary fibrosis C57BL/6 mouse model assessed as reduction in hydroxyproline content in lungs at 200 mg/kg administered via gavage for 13 days with first injection started at 24 hrs post-first BLM challenge and measured after 24 hrs; type: functional, organism-based; details: time 14.0 day
[18] = Anti-fibrotic activity in human NHCF-V cells assessed as downregulation of ACTA2 mRNA expression at 0.1 to 1 uM pretreated with compound for 30 mins followed by TGF-beta stimulation and measured after 24 hrs by qRT-PCR analysis; type: functional; details: dose 0.1-1 µM, time 24.5 hrs
[19] = test system: Mus musculus; experiment: as §1, with “in” for “in area of”, “lung inflammation” for “lung fibrosis”; type: functional, organism-based; details: time 14.0 day
[20] = test system: Mus musculus; experiment: Anti-fibrotic activity against CCl4-induced liver fibrosis C57BL/6 mouse model assessed as reduction in serum IBIL level at 200 mg/kg, ig administered for 27 days with first injection started at 24 hrs post-first CCl4 challenge and measured at 48 hrs post-last administration; type: functional, organism-based; details: time 29.0 day
[21] = test system: NHCF-V; experiment: Anti-fibrotic activity in human NHCF-V cells assessed as downregulation of ACTA2 mRNA expression at 1 uM pretreated with compound for 30 mins followed by TGF-beta stimulation and measured after 24 hrs by qRT-PCR analysis; type: functional, cell-based; details: time 24.5 hrs
[22] = test system: LX-2; experiment: Anti-fibrotic activity in human LX2 cells assessed as downregulation of CTGF mRNA expression at 1 uM pretreated with compound for 30 mins followed by TGF-beta stimulation and measured after 24 hrs by qRT-PCR analysis; type: functional, cell-based; details: time 24.5 hrs
[23] = test system: NHCF-V; experiment: Anti-fibrotic activity in human NHCF-V cells assessed as downregulation of TGF-beta1 mRNA expression at 1 uM pretreated with compound for 30 mins followed by TGF-beta stimulation and measured after 24 hrs by qRT-PCR analysis; type: functional, cell-based; details: time 24.5 hrs
[24] = test system: LX-2; experiment: Anti-fibrotic activity in human LX2 cells assessed as downregulation of PAI-1 mRNA expression at 1 uM pretreated with compound for 30 mins followed by TGF-beta stimulation and measured after 24 hrs by qRT-PCR analysis; type: functional, cell-based; details: time 24.5 hrs
[25] = test system: LX-2; experiment: Anti-fibrotic activity in human LX2 cells assessed as downregulation of ACTA2 mRNA expression at 1 uM pretreated with compound for 30 mins followed by TGF-beta stimulation and measured after 24 hrs by qRT-PCR analysis; type: functional, cell-based; details: time 24.5 hrs
[26] = test system: LX-2; experiment: Anti-fibrotic activity in human LX2 cells assessed as downregulation of COL1A1 mRNA expression at 1 uM pretreated with compound for 30 mins followed by TGF-beta stimulation and measured after 24 hrs by qRT-PCR analysis; type: functional, cell-based; details: time 24.5 hrs
[27] = test system: NHCF-V; experiment: Anti-fibrotic activity in human NHCF-V cells assessed as downregulation of CTGF mRNA expression at 1 uM pretreated with compound for 30 mins followed by TGF-beta stimulation and measured after 24 hrs by qRT-PCR analysis; type: functional, cell-based; details: time 24.5 hrs
[28] = test system: NHCF-V; experiment: Anti-fibrotic activity in human NHCF-V cells assessed as downregulation of PAI-1 mRNA expression at 1 uM pretreated with compound for 30 mins followed by TGF-beta stimulation and measured after 24 hrs by qRT-PCR analysis; type: functional, cell-based; details: time 24.5 hrs
[29] = test system: Mus musculus; experiment: as §2, with “250” for “200”; type: functional, organism-based; details: time 29.0 day

Row | SMILES | Activity [3] | Activity [5] | Activity [8] | Activity [13] | Activity [21] | Activity [22] | Activity [23] | Activity [24] | Activity [25] | Activity [26] | Activity [27] | Activity [28] | also measured
1 | CC1(C[S+]([O-])Cc2ccccc2)COC1 (centres undefined) | inactive | inactive | inactive | inactive | – | – | – | – | – | – | – | – | Activity [1]: Active; Activity [2]: Active; Activity [4]: Active; Activity [6]: Active; Activity [7]: Active; Activity [9]: Active; inhibition (INH) [10]: <30%; Activity [11]: Active; inhibition (INH) [12]: <30%; Activity [14]: Active; Activity [15]: Active; Activity [16]: Active; Activity [17]: Active; inhibition (INH) [18]: <30%; Activity [19]: Active; Activity [20]: Active
2 | CC1(C[S+]([O-])c2ccccc2)COC1 (centres undefined) | inactive | inactive | inactive | inactive | inactive | inactive | inactive | inactive | inactive | inactive | inactive | inactive | Activity [9]: inactive; Activity [14]: Active; Activity [15]: Active; Activity [16]: Active; Activity [20]: Active
3 | NC(=O)C[S+]([O-])Cc1ccccc1 (centres undefined) | inactive | inactive | inactive | inactive | inactive | inactive | inactive | inactive | inactive | inactive | inactive | inactive | –
4 | NC(=O)C[S+]([O-])c1cccc(F)c1 (centres undefined) | inactive | inactive | inactive | inactive | inactive | inactive | inactive | inactive | inactive | inactive | inactive | inactive | –
5 | CC1(C[S+]([O-])c2cccc(F)c2)COC1 (centres undefined) | – | – | Active | – | – | – | – | – | – | – | – | – | –
6 | Cc1ccc(=O)n(-c2ccccc2)c1 | – | – | – | – | – | – | – | – | – | – | – | – | Activity [29]: Active
7 | CCC1(C[S+]([O-])c2cccc(F)c2)COC1 (centres undefined) | – | – | – | – | – | – | – | – | – | – | – | Active | –
